Laboratory results taken from patent publication US5659055A, “Cytoprotective fatty moiety compounds” (Virginia Commonwealth University, priority 1995, dated 1997).

Experiments:
[1] = test system: Human SF-PLA2 Induced Mouse Paw Edema; test: Human SF-PLA2 induced mouse paw edema, oral administration; type: in vivo
Description: The mouse paw edema is inhibited in dose related fashion by increasing concentrations of RISE-1 given orally 1.0 hours before induction of the edema by SF-PLA2.

[2] = Autooxidation of phosphatidylethanolamine
[3] = Oxidation of arachidonic acid (decreased turbidity and hydroperoxide formation)

Row | SMILES | oral antiinflammatory activity in this model of edema [1] | effect on the autooxidation of phosphatidylethanolamine [2] | effect on the autooxidation of arachidonic acid [3]
1 | CCCCCCC(C/C=C\CCCCCCCC(=O)O)OC(=O)CCCCCCCCC(=O)O (stereo not drawn) [RISE-1, Ricinoleic Acid--Sebacyl Ester] | has oral antiinflammatory activity | no effect | no effect
2 | CCCCCCCC/C=C\CCCCCCCCOC(=O)CCCCCCC/C=C\CC(CCCCCC)OC(=O)/C=C/C(=O)O (stereo not drawn) [OA1RAFA, Oleyl Alcohol-Ricinoleate-Fumaric Acid Diester] | – | effective inhibitors | –
3 | CCCCCCCC/C=C\CCCCCCCC(=O)OC(C/C=C\CCCCCCCC(=O)O)CCCCCC (stereo not drawn) [RAOA, Ricinoleic Acid--Oleic Acid Ester] | – | effective inhibitors | –
4 | CCCCC/C=C\C/C=C\CCCCCCCC(=O)OC(C/C=C\CCCCCCCC(=O)O)CCCCCC (stereo not drawn) [RALA, Ricinoleic acid--Linoleic Acid Ester] | – | effective inhibitors | –
